Tests used:
Settings in all cases: 72 h
U2OS [1] = test: cell viability relative to DMSO; higher = less toxic
Caco-2 [2] = test: as above
HepG2 [3] = test: as above
Calu-3 [4] = test: as above
Vero E6 [5] = test: as above
U2OS [6] = test: drug sensitivity score (DSS) for viability; higher = more toxic; extreme values may be limits of the assay
Caco-2 [7] = test: as above
HepG2 [8] = test: as above
Calu-3 [9] = test: as above
Vero E6 [10] = test: as above
U2OS [11] = test: relative viability EC50 (midpoint between 100% and the lowest measured viability); higher = less toxic
Caco-2 [12] = test: as above
HepG2 [13] = test: as above
Calu-3 [14] = test: as above
Vero E6 [15] = test: as above

Structure (SMILES) | cell viability (U2OS [1]; 1 nM) | cell viability (U2OS [1]; 10 nM) | cell viability (U2OS [1]; 100 nM) | cell viability (U2OS [1]; 1000 nM) | cell viability (U2OS [1]; 10000 nM) | cell viability (Caco-2 [2]; 1 nM) | cell viability (Caco-2 [2]; 10 nM) | cell viability (Caco-2 [2]; 100 nM) | cell viability (Caco-2 [2]; 1000 nM) | cell viability (Caco-2 [2]; 10000 nM) | cell viability (HepG2 [3]; 1 nM) | cell viability (HepG2 [3]; 10 nM) | cell viability (HepG2 [3]; 100 nM) | cell viability (HepG2 [3]; 1000 nM) | cell viability (HepG2 [3]; 10000 nM) | cell viability (Calu-3 [4]; 1 nM) | cell viability (Calu-3 [4]; 10 nM) | cell viability (Calu-3 [4]; 100 nM) | cell viability (Calu-3 [4]; 1000 nM) | cell viability (Calu-3 [4]; 10000 nM) | cell viability (Vero E6 [5]; 1 nM) | cell viability (Vero E6 [5]; 10 nM) | cell viability (Vero E6 [5]; 100 nM) | cell viability (Vero E6 [5]; 1000 nM) | cell viability (Vero E6 [5]; 10000 nM) | drug sensitivity score (U2OS [6]) | drug sensitivity score (Caco-2 [7]) | drug sensitivity score (HepG2 [8]) | drug sensitivity score (Calu-3 [9]) | drug sensitivity score (Vero E6 [10]) | relative viability EC50 (U2OS [11]) | relative viability EC50 (Caco-2 [12]) | relative viability EC50 (HepG2 [13]) | relative viability EC50 (Calu-3 [14]) | relative viability EC50 (Vero E6 [15])
CCN1CCC[C@H]1CNC(=O)c1c(O)c(Cl)cc(Cl)c1OC [raclopride] | 101% | 95.2% | 96.6% | 95% | 99.9% | 91.2% | 88.3% | 93.5% | 84% | 96.6% | 99.6% | 104% | 93.7% | 101% | 93.1% | 97.9% | 94% | 92.4% | 96.7% | 97.4% | 101% | 100% | 94.7% | 93% | 100% | 0 | 0 | 0 | 0 | 0 | > 10 µM | > 10 µM | > 10 µM | > 10 µM | > 10 µM
CC(CN(C)C)C(C)(O)Cc1ccc(Cl)cc1 (stereo not given) [clobutinol] | 97.3% | 97.4% | 97.7% | 96.5% | 96.9% | 99.1% | 118% | 100% | 108% | 97.4% | 111% | 95.5% | 105% | 97.6% | 88.4% | 98.7% | 106% | 106% | 104% | 98.1% | 101% | 98.6% | 102% | 89.6% | 93.2% | 0 | 0 | 0.1 | 0 | 0.1 | > 10 µM | > 10 µM | > 10 µM | > 10 µM | > 10 µM
CC#CCn1c(N2CCC[C@@H](N)C2)nc2c1c(=O)n(Cc1nc(C)c3ccccc3n1)c(=O)n2C [linagliptin] | 98.4% | 99.8% | 98.9% | 107% | 96.1% | 103% | 105% | 89.9% | 91.4% | 102% | 95.3% | 93.8% | 95.7% | 103% | 102% | 95.9% | 103% | 99.2% | 97.9% | 102% | 97.1% | 106% | 105% | 84.4% | 110% | 0 | 0 | 0 | 0 | 0 | > 10 µM | > 10 µM | > 10 µM | > 10 µM | > 10 µM
CC(C)c1ccc(C(=O)N=C(N)N)cc1S(C)(=O)=O [cariporide] | 100% | 98.2% | 100% | 96.1% | 97% | 109% | 107% | 102% | 89.7% | 107% | 102% | 84.4% | 89.7% | 98% | 95.6% | 102% | 96.7% | 93.6% | 96.3% | 106% | 102% | 101% | 106% | 108% | 92.3% | 0 | 0 | 0 | 0 | 0 | > 10 µM | > 10 µM | > 10 µM | > 10 µM | > 10 µM

Source: the supplement of paper PMC13380429
